# Reference: PubChem BioAssay AID1963971 (Molecular Pharmacology Branch, DTP, NCI, 2024)
# Tested on: 953936-095-R-J2-PDC spheroids with HUVEC/MSC, viability
# Assay: Anticancer human tumor 953936-095-R-J2-PDC patient-derived cervical squamous cell carcinoma cell line growth inhibition [PI3K]
# Details: for IC50: curve of first compound; for viability, T/C: stronger effect = lower value
# Procedure, shortened: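 Viability of mixed-cell spheroids was determined after exposure to pairwise combinations, one partner being inavolisib, alpelisib, duvelisib or copanlisib. Highest tested concentration matched clinical Cmax where known and 10 microM where not, descending in half-log steps.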
# [1] = second compound 0.00316 µM, first compound 0.0316 µM
# [2] = second compound 0.00316 µM, first compound 0.1 µM
# [3] = second compound 0.00316 µM, first compound 0.316 µM
# [4] = second compound 0.00316 µM, first compound 1 µM
# [5] = second compound 0.00316 µM, first compound 3.16 µM
# [6] = second compound 0.00316 µM, first compound 10 µM
# [7] = second compound 0.01 µM, first compound 0.0316 µM
# [8] = second compound 0.01 µM, first compound 0.1 µM
# [9] = second compound 0.01 µM, first compound 0.316 µM
# [10] = second compound 0.01 µM, first compound 1 µM
# [11] = second compound 0.01 µM, first compound 3.16 µM
# [12] = second compound 0.01 µM, first compound 10 µM
# [13] = second compound 0.0316 µM, first compound 0.0316 µM
# [14] = second compound 0.0316 µM, first compound 0.1 µM
# [15] = second compound 0.0316 µM, first compound 0.316 µM
# [16] = second compound 0.0316 µM, first compound 1 µM
# [17] = second compound 0.0316 µM, first compound 3.16 µM
# [18] = second compound 0.0316 µM, first compound 10 µM
# [19] = second compound 0.1 µM, first compound 0.0316 µM
# [20] = second compound 0.1 µM, first compound 0.1 µM
# [21] = second compound 0.1 µM, first compound 0.316 µM
# [22] = second compound 0.1 µM, first compound 1 µM
# [23] = second compound 0.1 µM, first compound 3.16 µM
# [24] = second compound 0.1 µM, first compound 10 µM
# [25] = second compound 0.316 µM, first compound 0.0316 µM
# [26] = second compound 0.316 µM, first compound 0.1 µM
# [27] = second compound 0.316 µM, first compound 0.316 µM
# [28] = second compound 0.316 µM, first compound 1 µM
# [29] = second compound 0.316 µM, first compound 3.16 µM
# [30] = second compound 0.316 µM, first compound 10 µM
# [31] = second compound 1 µM, first compound 0.0316 µM
# [32] = second compound 1 µM, first compound 0.1 µM
# [33] = second compound 1 µM, first compound 0.316 µM
# [34] = second compound 1 µM, first compound 1 µM
# [35] = second compound 1 µM, first compound 3.16 µM
# [36] = second compound 1 µM, first compound 10 µM
# 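Further: spheroids exposed to compounds for seven days before read-out.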
smiles,measurement,setting,value
C=CC(=O)N1CCN(c2nc(=O)n(-c3c(C)ccnc3C(C)C)c3nc(-c4c(O)cccc4F)c(F)cc23)C(C)C1 (stereo not drawn) + CC(Nc1ccc2c(c1)OCCn1cc(N3C(=O)OCC3C(F)F)nc1-2)C(N)=O,IC50,second compound 0.00316 µM,> 10000 nM
same,IC50,second compound 0.01 µM,> 10000 nM
same,IC50,second compound 0.0316 µM,> 10000 nM
same,IC50,second compound 0.1 µM,> 10000 nM
same,IC50,second compound 0.316 µM,< 31.6 nM
same,IC50,second compound 1 µM,< 31.6 nM
same,"viability, T/C",[1],94.8%
same,"viability, T/C",[2],94.5%
same,"viability, T/C",[3],99.9%
same,"viability, T/C",[4],110%
same,"viability, T/C",[5],114%
same,"viability, T/C",[6],112%
same,"viability, T/C",[7],86.8%
same,"viability, T/C",[8],91.3%
same,"viability, T/C",[9],101%
same,"viability, T/C",[10],101%
same,"viability, T/C",[11],116%
same,"viability, T/C",[12],108%
same,"viability, T/C",[13],80%
same,"viability, T/C",[14],82.5%
same,"viability, T/C",[15],89.5%
same,"viability, T/C",[16],98.6%
same,"viability, T/C",[17],90.4%
same,"viability, T/C",[18],94.1%
same,"viability, T/C",[19],60.2%
same,"viability, T/C",[20],56.2%
same,"viability, T/C",[21],61.4%
same,"viability, T/C",[22],72.3%
same,"viability, T/C",[23],77.7%
same,"viability, T/C",[24],69.2%
same,"viability, T/C",[25],37.1%
same,"viability, T/C",[26],35.3%
same,"viability, T/C",[27],34.9%
same,"viability, T/C",[28],42%
same,"viability, T/C",[29],39.6%
same,"viability, T/C",[30],35.9%
same,"viability, T/C",[31],21.4%
same,"viability, T/C",[32],25.3%
same,"viability, T/C",[33],23.2%
same,"viability, T/C",[34],24.5%
same,"viability, T/C",[35],22.5%
same,"viability, T/C",[36],19.6%
CC(Cn1ccc(-c2ccc(C#N)c(Cl)c2)n1)NC(=O)c1cc(C(C)O)[nH]n1 (stereo not drawn) + CC(Nc1ccc2c(c1)OCCn1cc(N3C(=O)OCC3C(F)F)nc1-2)C(N)=O,IC50,second compound 0.00316 µM,> 10000 nM
same,IC50,second compound 0.01 µM,> 10000 nM
same,IC50,second compound 0.0316 µM,> 10000 nM
same,IC50,second compound 0.1 µM,> 10000 nM
same,IC50,second compound 0.316 µM,< 31.6 nM
same,IC50,second compound 1 µM,< 31.6 nM
same,"viability, T/C",[1],86.4%
same,"viability, T/C",[2],92.7%
same,"viability, T/C",[3],94%
same,"viability, T/C",[4],97.8%
same,"viability, T/C",[5],105%
same,"viability, T/C",[6],107%
same,"viability, T/C",[7],87.7%
same,"viability, T/C",[8],90.9%
same,"viability, T/C",[9],92.1%
same,"viability, T/C",[10],91.5%
same,"viability, T/C",[11],86.6%
same,"viability, T/C",[12],95.1%
same,"viability, T/C",[13],84.3%
same,"viability, T/C",[14],76.1%
same,"viability, T/C",[15],74.7%
same,"viability, T/C",[16],84.5%
same,"viability, T/C",[17],81.7%
same,"viability, T/C",[18],82.6%
same,"viability, T/C",[19],58.1%
same,"viability, T/C",[20],56.3%
same,"viability, T/C",[21],54.6%
same,"viability, T/C",[22],54.4%
same,"viability, T/C",[23],61.3%
same,"viability, T/C",[24],56.5%
same,"viability, T/C",[25],34.3%
same,"viability, T/C",[26],32.5%
same,"viability, T/C",[27],32.6%
same,"viability, T/C",[28],36.2%
same,"viability, T/C",[29],38.4%
same,"viability, T/C",[30],34.6%
same,"viability, T/C",[31],21.8%
same,"viability, T/C",[32],21.7%
same,"viability, T/C",[33],20.9%
same,"viability, T/C",[34],26.6%
same,"viability, T/C",[35],22.6%
same,"viability, T/C",[36],24.1%
Cn1ncc(Cl)c1-c1cc(C(=O)NC(CN)Cc2cccc(F)c2)sc1Cl (stereo not drawn) + CC(Nc1ccc2c(c1)OCCn1cc(N3C(=O)OCC3C(F)F)nc1-2)C(N)=O,IC50,second compound 0.00316 µM,618 nM
same,IC50,second compound 0.01 µM,499 nM
same,IC50,second compound 0.0316 µM,323 nM
same,IC50,second compound 0.1 µM,181 nM
same,IC50,second compound 0.316 µM,< 31.6 nM
same,IC50,second compound 1 µM,< 31.6 nM
same,"viability, T/C",[1],83.3%
same,"viability, T/C",[2],84.3%
same,"viability, T/C",[3],62.6%
same,"viability, T/C",[4],40.2%
same,"viability, T/C",[5],19.1%
same,"viability, T/C",[6],11%
same,"viability, T/C",[7],90.4%
same,"viability, T/C",[8],87.3%
same,"viability, T/C",[9],58.1%
same,"viability, T/C",[10],35.1%
same,"viability, T/C",[11],17.7%
same,"viability, T/C",[12],12.6%
same,"viability, T/C",[13],78.3%
same,"viability, T/C",[14],71.3%
same,"viability, T/C",[15],49.7%
same,"viability, T/C",[16],27.6%
same,"viability, T/C",[17],15.5%
same,"viability, T/C",[18],9.96%
same,"viability, T/C",[19],66.6%
same,"viability, T/C",[20],61.7%
same,"viability, T/C",[21],38.8%
same,"viability, T/C",[22],25.7%
same,"viability, T/C",[23],13.6%
same,"viability, T/C",[24],10.5%
same,"viability, T/C",[25],36.1%
same,"viability, T/C",[26],37.1%
same,"viability, T/C",[27],28%
same,"viability, T/C",[28],17.1%
same,"viability, T/C",[29],12.9%
same,"viability, T/C",[30],7.57%
same,"viability, T/C",[31],22.1%
same,"viability, T/C",[32],22.5%
same,"viability, T/C",[33],18.8%
same,"viability, T/C",[34],13.8%
same,"viability, T/C",[35],10.4%
same,"viability, T/C",[36],5.59%
Cn1nccc1Nc1nccc(-c2ccn(C(CO)c3ccc(Cl)c(F)c3)c(=O)c2)n1 (stereo not drawn) + CC(Nc1ccc2c(c1)OCCn1cc(N3C(=O)OCC3C(F)F)nc1-2)C(N)=O,IC50,second compound 0.00316 µM,> 10000 nM
same,IC50,second compound 0.01 µM,> 10000 nM
same,IC50,second compound 0.0316 µM,> 10000 nM
same,IC50,second compound 0.1 µM,383 nM
same,IC50,second compound 0.316 µM,< 31.6 nM
same,IC50,second compound 1 µM,< 31.6 nM
same,"viability, T/C",[1],86.2%
same,"viability, T/C",[2],87%
same,"viability, T/C",[3],93.8%
same,"viability, T/C",[4],95.1%
same,"viability, T/C",[5],80.4%
same,"viability, T/C",[6],71.7%
same,"viability, T/C",[7],84.4%
same,"viability, T/C",[8],94%
same,"viability, T/C",[9],88.8%
same,"viability, T/C",[10],77.1%
same,"viability, T/C",[11],78.8%
same,"viability, T/C",[12],70%
same,"viability, T/C",[13],75.2%
same,"viability, T/C",[14],68.8%
same,"viability, T/C",[15],70.1%
same,"viability, T/C",[16],72%
same,"viability, T/C",[17],65.1%
same,"viability, T/C",[18],61.9%
same,"viability, T/C",[19],62.1%
same,"viability, T/C",[20],52.7%
same,"viability, T/C",[21],51.3%
same,"viability, T/C",[22],46.5%
same,"viability, T/C",[23],47.8%
same,"viability, T/C",[24],40.1%
same,"viability, T/C",[25],36.3%
same,"viability, T/C",[26],32.8%
same,"viability, T/C",[27],31%
same,"viability, T/C",[28],28.4%
same,"viability, T/C",[29],24%
same,"viability, T/C",[30],19.5%
same,"viability, T/C",[31],21.9%
same,"viability, T/C",[32],20.9%
same,"viability, T/C",[33],18%
same,"viability, T/C",[34],15.1%
same,"viability, T/C",[35],12.6%
same,"viability, T/C",[36],8.88%
